Results: PMC10233829 (ACS Omega, 2023)
Converted amounts (≈) assume the structure as drawn. Read-outs that look alike come from different tables or passages of the source.

Columns and labels:
[1] = test system: M. tuberculosis Spec. 192; assay: Tuberculostatic activity, Microplate Alamar Blue Assay (MIC); type: cell-based; conditions: Mycobacterium tuberculosis, MABA, read-out: MIC M. tuberculosis Spec. 192 (sensitive to tuberculostatics)
M. tuberculosis H37Rv = assay: as above; type: cell-based, Mycobacterium tuberculosis; conditions: Mycobacterium tuberculosis, H37RV, read-out: MIC M. tuberculosis H37Rv
E. cloacae 8 = assay: MIC, twofold microdilution, clinical strain; type: cell-based, Escherichia cloacae; conditions: Enterobacter cloacae, 8; clinical strain, 18 h
[2] = test system: S. epidermidis ATCC 12228; assay: MIC, twofold microdilution, standard strain; type: cell-based; conditions: Staphylococcus epidermidis, ATCC12228, 18 h
S. aureus ATCC 29213 = assay: MIC, twofold microdilution, standard strain; type: cell-based; conditions: Staphylococcus aureus, ATCC29213, 18 h
P. aeruginosa 659 = assay: MIC, twofold microdilution, clinical strain; type: cell-based; conditions: Pseudomonas aeruginosa, 18 h
S. aureus NCTC 4163 = assay: MIC, twofold microdilution, standard strain; type: cell-based; conditions: Staphylococcus aureus, NCTC4163, 18 h
K. pneumoniae 510 = assay: MIC, twofold microdilution, clinical strain; type: cell-based, Klebsiella pneumoniae; conditions: Klebsiella pneumoniae, 510; clinical strain, 18 h
P. aeruginosa ATCC 15442 = assay: MIC, twofold microdilution, standard strain; type: cell-based, Pseudomonas aeruginosa; conditions: Pseudomonas aeruginosa, ATCC15442; standard strain, 18 h
S. aureus 180 = assay: MIC, twofold microdilution, clinical strain; type: cell-based; conditions: Staphylococcus aureus, 18 h
[3] = MTT assay, cytotoxic activity; type: cell-based; conditions: human
Protocol: (§1) Cells were seeded in 6 mL medium in a tissue culture flask (50 mL) in a 37 °C/5% CO2 humidified incubator. […] MTT analysis was performed according to a previous study.[59] Untreated cells were used as controls. Cell absorbance results were inserted into the formula for the relative MTT level (%). It allows to calculate the viability of cells under the influence of the tested compounds. Cell viability was expressed as the percentage of MTT reduction in cells treated with tested compounds compared to the control sample. The relative MTT level was calculated using the formula [100%] = A/B × 100% where A—the test sample absorbance and B—the control sample absorbance.

[4] = test system: S. epidermidis ATCC 35984; assay: MIC, twofold microdilution, standard strain; type: cell-based; conditions: Staphylococcus epidermidis, ATCC35984, 18 h
E. coli 600 = assay: MIC, twofold microdilution, clinical strain; type: cell-based, Escherichia coli; conditions: Escherichia coli, 600, 18 h
P. aeruginosa 37 = assay: MIC, twofold microdilution, clinical strain; type: cell-based; conditions: Pseudomonas aeruginosa, 18 h
E. coli 520 = assay: MIC, twofold microdilution, clinical strain; type: cell-based; conditions: Escherichia coli, 18 h
PC3 cells = assay: MTT assay, cytotoxic activity; type: cell-based, human; conditions: Homo sapiens, PC-3, 72 h, MTT, 72 h
Protocol: as §1, with “Metastatic prostate cancer (PC3) and human immortal keratinocyte (HaCaT) cell lines were purchased from the American Type Culture Collection (ATCC, Rockville, MD, USA) and cultured in MEM (minimal essential medium, Thermo Sci, USA), RPMI 1640 (Roswell Park Memorial Institute, Biowest SAS, France), and DMEM (Dulbecco’s Modified Eagle’s Medium, Biowest SAS, France). Cells” for “Cells”

S. epidermidis 5253 = assay: MIC, twofold microdilution, clinical strain; type: cell-based, Staphylococcus epidermidis; conditions: for MIC: Staphylococcus epidermidis, 5253, 18 h
E. coli ATCC 25922 = assay: MIC, twofold microdilution, standard strain; type: cell-based, Escherichia coli; conditions: Escherichia coli, ATCC25922; standard strain, 18 h
S. aureus T5595 = assay: MIC, twofold microdilution, clinical strain; type: cell-based, Staphylococcus aureus; conditions: for MIC: Staphylococcus aureus, T5595, 18 h
S. aureus T5591 = assay: MIC, twofold microdilution, clinical strain; type: cell-based, Staphylococcus aureus; conditions: for MIC: Staphylococcus aureus, T5591, 18 h
S. aureus ATCC 25923 = assay: MIC, twofold microdilution, standard strain; type: cell-based; conditions: Staphylococcus aureus, ATCC25923, 18 h
S. epidermidis 4341 = assay: MIC, twofold microdilution, clinical strain; type: cell-based; conditions: Staphylococcus epidermidis, 18 h
S. aureus ATCC 6538 = assay: MIC, twofold microdilution, standard strain; type: cell-based, Staphylococcus aureus; conditions: Staphylococcus aureus, ATCC6538; standard strain, 18 h
S. epidermidis KR4243/1 = assay: MIC, twofold microdilution, clinical strain; type: cell-based; conditions: Staphylococcus epidermidis, 18 h
S. aureus 5595 = assay: MIC, twofold microdilution, clinical strain; type: cell-based; conditions: Staphylococcus aureus, 18 h
S. pasteuri KR 4358 = assay: MIC, twofold microdilution, clinical strain; type: cell-based; conditions: Staphylococcus pasteuri, KR4358, 18 h
E. coli 951 = assay: MIC, twofold microdilution, clinical strain; type: cell-based; conditions: Escherichia coli, 18 h
K. pneumoniae 28 = assay: MIC, twofold microdilution, clinical strain; type: cell-based; conditions: Klebsiella pneumoniae, 18 h
[5] = test system: Staphylococci (standard strains); assay: MIC, standard Gram-positive strains as a panel; type: cell-based, S. aureus, S. epidermidis; conditions: standard Gram-positive strains of Table 1; read-out: MIC toward standard Staphylococci (range over strains)
[6] = test system: clinical bacterial strains; assay: MIC, clinical isolates as groups of strains; type: cell-based
[7] = HaCaT cells (immortal keratinocytes), MTT, 72 h, normal cell line, read-out: IC50 HaCaT

| Compound | MIC [1] [µg/mL] | MIC (M. tuberculosis H37Rv; MABA) [µg/mL] | MIC (E. cloacae 8) [µg/mL] | MIC [2] [µg/mL] | MIC (S. aureus ATCC 29213) [µg/mL] | MIC (P. aeruginosa 659) [µg/mL] | MIC (S. aureus NCTC 4163) [µg/mL] | MIC (K. pneumoniae 510) [µg/mL] | MIC (P. aeruginosa ATCC 15442) [µg/mL] | MIC (S. aureus 180) [µg/mL] | IC50 at 72 h [3, 7] [µM] | MIC [4] [µg/mL] | MIC (E. coli 600) [µg/mL] | MIC (P. aeruginosa 37) [µg/mL] | MIC (E. coli 520) [µg/mL] | IC50 (PC3 cells) [µM] | MIC (S. epidermidis 5253) [µg/mL] | MIC (E. coli ATCC 25922) [µg/mL] | MIC (S. aureus T5595) [µg/mL] | MIC (S. aureus T5591) [µg/mL] | also measured |
| --- | --- | --- | --- | --- | --- | --- | --- | --- | --- | --- | --- | --- | --- | --- | --- | --- | --- | --- | --- | --- | --- |
| CC[C@@H](CO)NCCN[C@@H](CC)CO [ethambutol(EMB), ethambutol, reference compound] | 2 (≈ 9.79 µM) | 2 (≈ 9.79 µM) | – | – | – | – | – | – | – | – | – | – | – | – | – | – | – | – | – | – | – |
| O=C(O)c1cn(C2CC2)c2cc(N3CCN(CCCCCC(=O)N4CCN(c5cc6c(cc5F)c(=O)c(C(=O)O)cn6C5CC5)CC4)CC3)c(F)cc2c1=O [Compound 20, CP–Hexanoyl–CP Dimer] | 16 (≈ 21.1 µM) | 32 (≈ 42.2 µM) | > 25.6 | 1.6 (≈ 2.11 µM) | 1.6 (≈ 2.11 µM) | > 25.6 | 1.6 (≈ 2.11 µM) | > 25.6 | > 25.6 | 1 (≈ 1.32 µM) | 89.5 ± 5.9 | 1.6 (≈ 2.11 µM) | 12.8 (≈ 16.9 µM) | > 25.6 | 12.8 (≈ 16.9 µM) | 69.9 ± 7.2 | > 25.6 | 6.4 (≈ 8.43 µM) | 0.8 (≈ 1.05 µM) | 0.8 (≈ 1.05 µM) | MIC (S. aureus ATCC 25923): 1.6 µg/mL (≈ 2.11 µM); MIC (S. epidermidis 4341): > 25.6 µg/mL; MIC (S. aureus ATCC 6538): 1.6 µg/mL (≈ 2.11 µM); MIC (S. epidermidis KR4243/1): 0.8 µg/mL (≈ 1.05 µM); MIC (S. aureus 5595): 1 µg/mL (≈ 1.32 µM); MIC (S. pasteuri KR 4358): 0.8 µg/mL (≈ 1.05 µM); MIC (E. coli 951): > 25.6 µg/mL; MIC (K. pneumoniae 28): > 25.6 µg/mL |
| [H]/N=C(/N)N[C@H]1[C@H](O)[C@@H](O)[C@H](O[C@@H]2O[C@@H](C)[C@](O)(C=O)[C@H]2O[C@@H]2O[C@@H](CO)[C@H](O)[C@@H](O)[C@@H]2NC)[C@@H](N/C(N)=N\[H])[C@@H]1O [streptomycin (SM), streptomycin, reference compound] | 1 (≈ 1.72 µM) | 1 (≈ 1.72 µM) | – | – | – | – | – | – | – | – | – | – | – | – | – | – | – | – | – | – | – |
| COc1cccc2c1C(=O)c1c(O)c3c(c(O)c1C2=O)C[C@@](O)(C(=O)CO)C[C@@H]3O[C@H]1C[C@H](N)[C@H](O)[C@H](C)O1 [doxorubicin, reference compound] | – | – | – | – | – | – | – | – | – | – | – | – | – | – | – | 0.3 ± 0.12 | – | – | – | – | IC50 at 72 h [3]: 0.3 ± 0.11 µM |
| O=C(O)c1cn(C2CC2)c2cc(N3CCN(CC(=O)N4CCN(c5cc6c(cc5F)c(=O)c(C(=O)O)cn6C5CC5)CC4)CC3)c(F)cc2c1=O [Compound 17, CP–Acetyl–CP Dimer] | 32 (≈ 45.5 µM) | 32 (≈ 45.5 µM) | 25.6 (≈ 36.4 µM) | 0.2 (≈ 0.285 µM) | 0.8 (≈ 1.14 µM) | > 25.6 | 0.4 (≈ 0.569 µM) | > 25.6 | > 25.6 | 1.6 (≈ 2.28 µM) | 41.3 ± 5.2 | 0.4 (≈ 0.569 µM) | 12.8 (≈ 18.2 µM) | > 25.6 | 3.2 (≈ 4.55 µM) | 88.4 ± 10.6 | 12.8 to 25.6 (≈ 18.2 to 36.4 µM) | 6.4 (≈ 9.11 µM) | 0.8 (≈ 1.14 µM) | 1.6 (≈ 2.28 µM) | MIC [5]: 0.2 to 1.6 µg/mL (≈ 0.285 to 2.28 µM); MIC S. epidermidis 5253 (S. epidermidis 5253; 18 h): 25.6 µg/mL (≈ 36.4 µM); MIC (S. aureus ATCC 25923): 1.6 µg/mL (≈ 2.28 µM); MIC (S. epidermidis 4341): 25.6 µg/mL (≈ 36.4 µM); MIC (S. aureus ATCC 6538): 0.2 µg/mL (≈ 0.285 µM); MIC (S. epidermidis KR4243/1): 0.2 µg/mL (≈ 0.285 µM); MIC (S. aureus 5595): 0.4 µg/mL (≈ 0.569 µM); MIC (S. pasteuri KR 4358): 1.6 µg/mL (≈ 2.28 µM); MIC (E. coli 951): > 25.6 µg/mL; MIC (K. pneumoniae 28): > 25.6 µg/mL |
| CO[C@H]1/C=C/O[C@@]2(C)Oc3c(C)c(O)c4c(O)c(c(/C=N/N5CCN(C)CC5)c(O)c4c3C2=O)NC(=O)/C(C)=C\C=C\[C@H](C)[C@H](O)[C@@H](C)[C@@H](O)[C@@H](C)[C@H](OC(C)=O)[C@@H]1C [rifampicin (RMP), rifampicin, reference compound] | 1 (≈ 1.22 µM) | 1 (≈ 1.22 µM) | – | – | – | – | – | – | – | – | – | – | – | – | – | – | – | – | – | – | – |
| O=C(O)c1cn(C2CC2)c2cc(N3CCN(C(=O)CC(F)(F)F)CC3)c(F)cc2c1=O [Compound 14, 7-[4-(3,3,3-Trifluoropropionyl)-piperazin-1-yl]-1-cyclopropyl-6-fluoro-4-oxo-1,4-dihydro-quinoline-3-carboxylic Acid] | 64 (≈ 145 µM) | 64 (≈ 145 µM) | 2 (≈ 4.53 µM) | 0.4 (≈ 0.906 µM) | 0.4 (≈ 0.906 µM) | > 25.6 | 0.4 (≈ 0.906 µM) | > 25.6 | > 25.6 | 0.5 (≈ 1.13 µM) | > 100 | 0.4 (≈ 0.906 µM) | 0.8 (≈ 1.81 µM) | > 25.6 | 0.4 (≈ 0.906 µM) | 63.4 ± 5.3 | > 25.6 | 0.8 (≈ 1.81 µM) | 0.1 to 0.2 (≈ 0.227 to 0.453 µM) | 0.1 to 0.2 (≈ 0.227 to 0.453 µM) | times more powerful than CP ([6]; S. aureus T5595 and T5591): 1.25–2.5 times; MIC ([6]; clinical strains, read-out: MIC against selected E. coli and E. cloacae strains): 0.1 to 0.8 µg/mL (≈ 0.227 to 1.81 µM); MIC S. aureus T5595 (S. aureus T5595; 18 h): 0.2 µg/mL (≈ 0.453 µM); MIC S. aureus T5591 (S. aureus T5591; 18 h): 0.2 µg/mL (≈ 0.453 µM); MIC (S. aureus ATCC 25923): 0.4 µg/mL (≈ 0.906 µM); MIC (S. epidermidis 4341): > 25.6 µg/mL; MIC (S. aureus ATCC 6538): 0.4 µg/mL (≈ 0.906 µM); MIC (S. epidermidis KR4243/1): 0.1 µg/mL (≈ 0.227 µM); MIC (S. aureus 5595): 0.5 µg/mL (≈ 1.13 µM); MIC (S. pasteuri KR 4358): 0.2 µg/mL (≈ 0.453 µM); MIC (E. coli 951): > 25.6 µg/mL; MIC (K. pneumoniae 28): > 25.6 µg/mL |
| NNC(=O)c1ccncc1 [isoniazid (INH), isoniazid, reference compound] | 0.125 (≈ 0.911 µM) | – | – | – | – | – | – | – | – | – | – | – | – | – | – | – | – | – | – | – | MIC (M. tuberculosis H37Rv): 0.125 µg/mL (≈ 0.911 µM) |
